Laboratory results as given in paper PMC9649909, “Wnt-pathway inhibitors with selective activity against triple-negative breast cancer: From thienopyrimidine to quinazoline inhibitors” (Frontiers in Pharmacology, 2022).
Read-outs that look alike come from different tables or passages of the source.

Experiments:
HCC1395 cells = experiment: in vitro; details: for HCC1395 Cytotoxicity Efficacy: human
Method: (§1) The simplicity of the scaffold combined with synthetic accessibility allows building a library of compounds and performing structure activity relationship (SAR) studies of the three main parts of the molecule: the top part, the linker and the core (Figure 2).
(§2) The synthesized compounds were used to explore SAR of three defined areas of investigation (Figure 2). All compounds were tested in the HCC1395 TNBC cell line using the GSK3β inhibitor to induce β-catenin signaling since 4a acted downstream of GSK3β (Figure 2). Both inhibition of β-catenin signaling measured by the TopFlash reporter and cytotoxicity measured by the Renilla reporter were assessed.
(§3) The Wnt3a or CHIR99021-stimulated luciferase activity in HCC1395 TNBC cell line stably transfected with the TopFlash reporter was analyzed essentially as described for the BT-20 TNBC cell line ([Shaw et al., 2019b]; [Koval et al., 2021]). Reporter cells were seeded at 10,000 cells/well in a white opaque 384-well plate in the final volume of 20 μl of DMEM medium supplemented with 10% FCS. The cells were maintained incubated at 37°C, 5% CO2 overnight for attachment. Subsequently, they were transfected by a plasmid encoding constitutively expressed Renilla luciferase under the CMV promoter overall as described in the manufacturer’s protocol using 12 μg/ml of DNA and 40 μl/ml XtremeGENE nine reagent. The next day, the medium in each well was replaced with a 10 μl of fresh medium containing compound of interest, and, after 1 h of preincubation with the compounds, additional 10 μl of medium supplemented with Wnt3a [purified as described ([Willert et al., 2003]; [Koval and Katanaev, 2011])] or CHIR99021 were added creating respective final concentrations of 2.5 μg/ml or 5 μM of each. In case of other signal transduction reporters, no additional stimulation was performed. Compound dilutions were prepared by serial dilution in DMSO and diluted with the amount of medium necessary to obtain their final concentrations indicated on the figures and tables and maintain concentration of DMSO of 0.5% in all assay points. After overnight incubation, the supernatant in each well was removed, and the luciferase activity was measured as described ([Dyer et al., 2000]; [Huber et al., 2021]; [Pellissier et al., 2021]). The culture medium was completely removed from all wells of the plate. Finally, the luciferase activity of the firefly and Renilla luciferases was detected sequentially in individual wells of a 384-well plate through injection of corresponding measurement solutions and immediate reading (400 ms integration time) in Infinite M Plex multifunctional plate reader with injection module.

[1] = system: β-catenin-dependent Wnt-pathway; experiment: TopFlash luciferase reporter assay, CHIR99021-stimulated, HCC1395; format: cell-based; details: for TopFlash activity in words: HCC1395, CHIR99021; for IC50 / Emax: Homo sapiens; for Emax: read-out: HCC1395 TopFlash Efficacy; for GSK HCC1395 Comments: Table S2
From the text: Both stimulations abolish formation of the destruction complex, a multiprotein complex consisting of Axin, adenomatous polyposis coli (APC), glycogen synthase kinase three beta (GSK3β), and casein kinase one alpha (CK1α). Upon inactivation of the complex, β-catenin accumulates in the cytoplasm and translocates into the nucleus where it interacts with transcription factors. These downstream events are quantified by a Luciferase transcription-based readout assay (TopFlash assay).

HCC1395 TNBC cell line = experiment: MTT survival assay HCC1395; format: cell-based; details: Homo sapiens, HCC1395; Table S2; read-out: MTT HCC-1395 IC50
Method: (§4) Indicated TNBC cell lines were detached and resuspended at 120,000 cells/ml and added into each well of a transparent 384-well plate in the final volume of 20 µl/well. The cells were maintained in DMEM containing 10% FBS at 37°C, 5% CO2 overnight. Next day, the medium in each well was replaced by 40 μl of the fresh one containing the indicated concentrations of compounds. In case of drug combination experiments, each compound dilution was delivered in corresponding well in 20 μl of medium. […] After incubation for 3–4 days, depending on the cell line, the medium in each well was replaced by 25 μl of 0.5 mg/ml Thiazolyl blue solution in 1xPBS following by incubation for 3 h at 37°C. Then the solution was removed and 25 μl DMSO was added into each well. Absorbance at 510 nm was measured in a Tecan Infinite M200 PRO plate reader.

HCC1806 TNBC cell line = experiment: MTT survival assay HCC1806; format: cell-based; details: for IC50: Homo sapiens, HCC1806
Method: as §4

in vitro = details: human
Method: as §1, §2, §3

[2] = system: MDA-MB-468 TNBC cell line; experiment: MTT survival assay MDA-MB-468; format: cell-based; details: Homo sapiens, MDA-MB-468; Table S2
Method: as §4

BT-20 TNBC cell line = experiment: MTT survival assay BT-20; format: cell-based; details: Homo sapiens, BT-20; Table S2; read-out: MTT BT-20 IC50
Method: as §4

[3] = system: non-cancerous breast epithelial cell line MCF10a; experiment: MTT survival assay MCF10a; format: cell-based; details: Table S2; for IC50: Homo sapiens, MCF-10A, read-out: MTT MCF10 IC50
Method: as §4

[4] = system: MDA-MB-231 TNBC cell line; experiment: MTT survival assay MDA-MB-231; format: cell-based; details: Table S2; for IC50: Homo sapiens, MDA-MB-231, read-out: MTT MDA-MB-231 IC50
Method: as §4

[5] = HCC1395, HCC1395, stimulation with CHIR99021 (GSK3β inhibitor), read-out: HCC1395 TopFlash IC50
[6] = Table S2, read-out: MTT HCC1806 IC50
[7] = HCC1395, HCC1395, stimulation with CHIR99021 (GSK3β inhibitor)
[8] = HCC1395, Table S2, TopFlash, GSK3β inhibitor stimulation, read-out: GSK HCC1395 IC50

TopFlash activity in words [1]	IC50 [1, 5] [µM]	Compound	IC50 (in vitro; HCC1395 Cytotoxicity IC50) [µM]	GSK HCC1395 Comments [1]	further results
–	10.7 ± 2.33	CC(Nc1ncnc2ccccc12)c1ccc(F)cc1 (stereo not drawn) [Compound 9h, N-(1-(4-fluorophenyl)ethyl)quinazolin-4-amine]	16.6 ± 6.59	–	HCC1395 Cytotoxicity Efficacy (HCC1395 cells): 51.1 ± 21.3%; Emax [1, 7]: 66.4 ± 6.9%
–	2.1 ± 1.64	CC(Nc1ncnc2sccc12)c1ccc(F)cc1 (stereo not drawn) [Compound 5c, N-(1-(4-fluorophenyl)ethyl)thieno[2,3-d]pyrimidin-4-amine]	> 50	–	Emax [1, 7]: 46.9 ± 8.41%
–	0.63 ± 0.21	Cc1ccc(C(C)Nc2ncnc3sccc23)cc1 (stereo not drawn) [Compound 5e, N-(1-(p-tolyl)ethyl)thieno[2,3-d]pyrimidin-4-amine]	> 50	–	Emax [1, 7]: 47 ± 9.67%

Second part, the compound before the results:

Compound	TopFlash activity in words [1]	IC50 [1, 5] [µM]	IC50 (in vitro; HCC1395 Cytotoxicity IC50) [µM]	GSK HCC1395 Comments [1]	further results
COc1cccc(C(C)Nc2ncnc3sccc23)c1 (stereo not drawn) [Compound 5b, N-(1-(3-methoxyphenyl)ethyl)thieno[2,3-d]pyrimidin-4-amine]	inactive	> 50	–	–	GSK HCC1395 Renilla Comments (HCC1395 cells): Non-toxic
COc1cc(CNc2ncnc3sccc23)ccc1Cl [Compound 4q, N-(4-chloro-3-methoxybenzyl)thieno[2,3-d]pyrimidin-4-amine]	–	1.33 ± 0.07	> 50	–	IC50 (HCC1395 TNBC cell line): 630 nM; IC50 (HCC1806 TNBC cell line; [6]): > 10 µM; MTT HCC1806 Comments (HCC1806 TNBC cell line; Table S2): Inactive; IC50 [2]: 570 nM; IC50 (BT-20 TNBC cell line): 0.96 µM; IC50 [3]: > 10 µM; MTT MCF10 Comments [3]: Inactive; Emax [1, 7]: 68.5 ± 2.9%; IC50 [4]: > 10 µM; MTT MDA-MB-231 Comments [4]: Inactive
Fc1ccccc1CNc1ncnc2sccc12 [Compound 4e, N-(2-fluorobenzyl)thieno[2,3-d]pyrimidin-4-amine]	–	–	7.45 ± 2.08	Toxic	Cytotoxicity (Renilla) in words (HCC1395 cells): toxicity
Cc1cccc(CNc2ncnc3sccc23)c1 [Compound 4n, N-(3-methylbenzyl)thieno[2,3-d]pyrimidin-4-amine]	–	3.76 ± 1.9	> 50	–	IC50 (HCC1395 TNBC cell line): 1050 nM; IC50 (HCC1806 TNBC cell line; [6]): > 10 µM; MTT HCC1806 Comments (HCC1806 TNBC cell line; Table S2): Inactive; IC50 [2]: 480 nM; IC50 (BT-20 TNBC cell line): 4.72 µM; IC50 [3]: > 10 µM; MTT MCF10 Comments [3]: Inactive; Emax [1, 7]: 52.9 ± 6.8%; IC50 [4]: > 10 µM; MTT MDA-MB-231 Comments [4]: Inactive
N#Cc1ccccc1CNc1ncnc2sccc12 [Compound 4k, 2-((thieno[2,3-d]pyrimidin-4-ylamino)methyl)benzonitrile]	–	> 50	–	Inactive	–
c1ccc(Nc2ncnc3sccc23)cc1 [Compound 5f, N-phenylthieno[2,3-d]pyrimidin-4-amine]	inactive	> 50	–	–	–
COc1cccc(CNc2ncnc3c(C)csc23)c1 [Compound 10, N-(3-methoxybenzyl)-7-methylthieno[3,2-d]pyrimidin-4-amine]	no longer active	> 100	> 100	Inactive	GSK HCC1395 Renilla Comments (HCC1395 cells): Non-toxic; IC50 [1, 8]: > 50 µM
COc1cccc(CNc2ccncn2)c1 [Compound 12, N-(3-methoxybenzyl)pyrimidin-4-amine]	no longer active	> 100	–	Inactive	IC50 [1, 8]: > 50 µM
COc1cccc(CNc2ccnc3ccccc23)c1 [Compound 16, N-(3-methoxybenzyl)quinolin-4-amine]	–	–	18.7	Toxic	HCC1395 Cytotoxicity Efficacy (HCC1395 cells): 39.4 ± 13.0%
N#Cc1cccc(CNc2ncnc3sccc23)c1 [Compound 4l, 3-((thieno[2,3-d]pyrimidin-4-ylamino)methyl)benzonitrile]	–	–	10 ± 3.36	Toxic	HCC1395 Cytotoxicity Efficacy (HCC1395 cells): 32.2 ± 10.5%
COc1cccc(CNc2nccc3ccccc23)c1 [Compound 13, N-(3-methoxybenzyl)isoquinolin-1-amine]	–	> 100	> 100	–	GSK HCC1395 Renilla Comments (HCC1395 cells): Non-toxic; IC50 [1, 8]: > 50 µM
N#Cc1ccc(CNc2ncnc3sccc23)cc1 [Compound 4m, 4-((thieno[2,3-d]pyrimidin-4-ylamino)methyl)benzonitrile]	abrogated the activity	> 50	–	Inactive	GSK HCC1395 Renilla Comments (HCC1395 cells): Non-toxic
CCN(Cc1cccc(OC)c1)c1ncnc2sccc12 [Compound 5i, N-ethyl-N-(3-methoxybenzyl)thieno[2,3-d]pyrimidin-4-amine]	–	–	8.3 ± 3.79	Toxic	HCC1395 Cytotoxicity Efficacy (HCC1395 cells): 64.1 ± 9.3%
Clc1ccccc1CNc1ncnc2sccc12 [Compound 4h, N-(2-chlorobenzyl)thieno[2,3-d]pyrimidin-4-amine]	–	–	8.61 ± 4.38	Toxic	HCC1395 Cytotoxicity Efficacy (HCC1395 cells): 67.1 ± 7.8%
Fc1cccc(CNc2ncnc3sccc23)c1 [Compound 4f, N-(3-fluorobenzyl)thieno[2,3-d]pyrimidin-4-amine]	–	> 50	–	Inactive	–
COc1cccc(CCNc2ncnc3sccc23)c1 [Compound 5n, N-(3-methoxyphenethyl)thieno[2,3-d]pyrimidin-4-amine]	not tolerated	> 50	–	Inactive	–
COc1cccc(C(=O)Nc2ncnc3sccc23)c1 [Compound 7, 3-methoxy-N-(thieno[2,3-d]pyrimidin-4-yl)benzamide]	–	> 50	–	Inactive	–
COc1ccccc1CNc1ncnc2ccccc12 [Compound 9a, N-(2-methoxybenzyl)quinazolin-4-amine]	–	–	29 ± 14.5	Toxic	HCC1395 Cytotoxicity Efficacy (HCC1395 cells): 100 ± 0%
Clc1ccc(CCNc2ncnc3ccccc23)cc1 [Compound 9g, N-(4-chlorophenethyl)quinazolin-4-amine]	–	–	–	Toxic	IC50 (in vitro): 13 ± 1.45 µM; HCC1395 Cytotoxicity Efficacy (HCC1395 cells): 100 ± 0%
COc1ccc(CNc2ncnc3sccc23)cc1 [Compound 4d, N-(4-methoxybenzyl)thieno[2,3-d]pyrimidin-4-amine]	abrogated the activity	> 50	–	Inactive	IC50 (HCC1395 TNBC cell line): > 50000 nM; IC50 (HCC1806 TNBC cell line; Figure 3B heatmap, read-out: IC50, μM (HCC1806)): > 50 µM; IC50 (HCC1806 TNBC cell line; [6]): 46.5 µM; IC50 [2]: 14200 nM; IC50 (BT-20 TNBC cell line): 39.8 µM; IC50 [3]: > 50 µM; IC50 [4]: > 50 µM; MTT MDA-MB-231 Comments [4]: Inactive
COc1cccc(CNc2cc(Cl)ncn2)c1 [Compound 11, 6-chloro-N-(3-methoxybenzyl)pyrimidin-4-amine]	no longer active	58.2 ± 1.48	–	–	Emax [1, 7]: 100%; IC50 [1, 8]: > 50 µM
